Measured values from ChEMBL document CHEMBL1201862, “PubChem BioAssay data set” (2004).
Active and inactive are the calls of the source.

How the values were obtained:
[1] = mitochondrial function rescue without frataxin homolog – Friedreich's ataxia, plus single-dose screen, dose response (AID 1465); assay type: functional;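 note: yeast depleted of Yfh1p frataxin homolog grown on glycerol needing respiration; WST-1 tetrazolium dye reduction as measure of cellular dehydrogenase metabolic activity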
Insulin-degrading enzyme = biological target: T1, Insulin-degrading enzyme (Homo sapiens, UniProt P14735); experiment: Dose Response: Fluorescence polarization-based cell-based high throughput dose response assay for inhibitors of insulin-degrading enzyme (IDE). [Related pubchem assays: 434962 (Primary screen (IDE inhibitors in singlicate)), 449730 (Counterscreen (Cytotoxicity in triplicate)), 435028 (Confirmation (IDE inhibitors in triplicate)), 434984 (Summary …; assay type: functional
T1 sequence (P14735 whole entry): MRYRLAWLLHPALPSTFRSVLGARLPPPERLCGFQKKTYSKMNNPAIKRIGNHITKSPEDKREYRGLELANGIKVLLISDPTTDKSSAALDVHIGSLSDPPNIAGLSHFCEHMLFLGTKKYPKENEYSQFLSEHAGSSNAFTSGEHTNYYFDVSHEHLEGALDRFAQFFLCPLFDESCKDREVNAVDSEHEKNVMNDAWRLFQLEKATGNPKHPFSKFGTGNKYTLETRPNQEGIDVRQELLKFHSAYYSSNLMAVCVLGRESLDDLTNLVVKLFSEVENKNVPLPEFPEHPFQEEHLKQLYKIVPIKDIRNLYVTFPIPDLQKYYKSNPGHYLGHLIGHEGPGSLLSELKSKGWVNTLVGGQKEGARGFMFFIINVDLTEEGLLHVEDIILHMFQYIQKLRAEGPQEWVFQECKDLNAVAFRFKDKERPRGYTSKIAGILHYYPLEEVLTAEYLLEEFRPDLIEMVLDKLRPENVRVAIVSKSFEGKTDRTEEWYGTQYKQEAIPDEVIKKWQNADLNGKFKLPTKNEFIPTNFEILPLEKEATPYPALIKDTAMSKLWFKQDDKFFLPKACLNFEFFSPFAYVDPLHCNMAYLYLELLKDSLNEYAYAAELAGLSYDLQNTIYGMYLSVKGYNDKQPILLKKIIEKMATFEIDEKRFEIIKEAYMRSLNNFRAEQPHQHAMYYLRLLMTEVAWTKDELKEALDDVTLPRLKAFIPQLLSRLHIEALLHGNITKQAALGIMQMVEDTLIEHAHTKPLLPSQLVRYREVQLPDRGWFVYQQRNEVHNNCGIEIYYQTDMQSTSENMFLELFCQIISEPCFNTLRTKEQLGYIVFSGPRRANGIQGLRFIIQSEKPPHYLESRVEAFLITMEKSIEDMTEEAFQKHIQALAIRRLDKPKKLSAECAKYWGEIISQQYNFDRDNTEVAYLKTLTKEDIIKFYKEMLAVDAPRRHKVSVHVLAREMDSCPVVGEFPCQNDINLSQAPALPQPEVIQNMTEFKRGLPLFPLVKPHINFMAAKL

[2] = biological target: T2, Oxysterols receptor LXR-beta (Homo sapiens, UniProt P55055); experiment: LXR agonists, Gal4 luciferase reporter, dose response, counter-screen for ssDAF-12 agonist project, cell-based, luminescence, HEK293, S. stercoralis campaign (AID 720737); assay type: functional; details: read-out: IC50 (the source's name)
T2 sequence (P55055 whole entry): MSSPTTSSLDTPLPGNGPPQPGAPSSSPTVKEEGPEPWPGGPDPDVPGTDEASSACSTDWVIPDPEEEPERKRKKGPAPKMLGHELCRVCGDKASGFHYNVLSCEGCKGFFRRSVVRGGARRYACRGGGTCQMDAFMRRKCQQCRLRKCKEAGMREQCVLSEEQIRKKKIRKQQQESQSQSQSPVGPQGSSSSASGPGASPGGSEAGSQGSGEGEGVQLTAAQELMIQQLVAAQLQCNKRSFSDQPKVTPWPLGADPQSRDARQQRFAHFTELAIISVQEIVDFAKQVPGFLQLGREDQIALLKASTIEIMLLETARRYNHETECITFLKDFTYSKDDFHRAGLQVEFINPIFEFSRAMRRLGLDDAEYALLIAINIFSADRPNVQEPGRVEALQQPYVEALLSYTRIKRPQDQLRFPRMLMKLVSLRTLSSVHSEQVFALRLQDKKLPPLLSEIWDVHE

[3] = Luminescence-based cell-based high throughput dose response assay to identify activators of the DAF-12 from the parasite S. stercoralis (ssDAF-12).; assay type: functional
[4] = Counterscreen for IDE inhibitors: Luminescence-based cell-based high throughput dose response assay to identify compounds that are cytotoxic to HEK cells. [Related pubchem assays: 434962 (Primary screen (IDE inhibitors in singlicate)), 449730 (Counterscreen (Cytotoxicity in triplicate)), 435028 (Confirmation (IDE inhibitors in triplicate)) …; assay type: functional; details: HEK293
Procathepsin L = Procathepsin L (Homo sapiens, UniProt P07711)
Aspartyl aminopeptidase = Aspartyl aminopeptidase (Plasmodium falciparum 3D7, UniProt Q8I2J3)
[5] = biological target: T3, Alkaline phosphatase, tissue-nonspecific isozyme (Homo sapiens, UniProt P05186)
T3 sequence (P05186 whole entry): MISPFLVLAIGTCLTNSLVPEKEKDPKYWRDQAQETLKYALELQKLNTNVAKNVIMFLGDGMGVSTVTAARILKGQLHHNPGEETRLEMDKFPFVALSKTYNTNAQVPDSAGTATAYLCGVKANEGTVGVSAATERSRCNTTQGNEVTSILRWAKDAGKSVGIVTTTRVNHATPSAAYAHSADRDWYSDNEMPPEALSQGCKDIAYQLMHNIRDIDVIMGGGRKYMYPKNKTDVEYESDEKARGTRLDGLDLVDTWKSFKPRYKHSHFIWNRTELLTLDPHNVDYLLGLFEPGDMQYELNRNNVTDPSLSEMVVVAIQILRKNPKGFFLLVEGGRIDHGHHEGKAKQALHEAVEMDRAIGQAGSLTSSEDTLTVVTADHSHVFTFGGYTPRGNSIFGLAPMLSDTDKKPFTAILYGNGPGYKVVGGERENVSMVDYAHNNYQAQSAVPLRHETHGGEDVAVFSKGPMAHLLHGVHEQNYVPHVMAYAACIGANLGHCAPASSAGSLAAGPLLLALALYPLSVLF

[6] = antiviral protection against BTV-induced cell death – arbovirus, BSR cells, confirmation (AID 1250); assay type: functional;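 note: protection from viral cytopathic effect measured as cell viability by ATP luminescence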
Aminopeptidase N = biological target: T4, Aminopeptidase N (Plasmodium falciparum FcB1/Columbia, UniProt O96935); experiment: malaria alanyl aminopeptidase activity blockers – biochemical, fluorogenic H-Leu-NHMec substrate, 1536-well (AID 1445); set-up: species or system Plasmodium falciparum 3D7, 3D7
T4 sequence (O96935 whole entry): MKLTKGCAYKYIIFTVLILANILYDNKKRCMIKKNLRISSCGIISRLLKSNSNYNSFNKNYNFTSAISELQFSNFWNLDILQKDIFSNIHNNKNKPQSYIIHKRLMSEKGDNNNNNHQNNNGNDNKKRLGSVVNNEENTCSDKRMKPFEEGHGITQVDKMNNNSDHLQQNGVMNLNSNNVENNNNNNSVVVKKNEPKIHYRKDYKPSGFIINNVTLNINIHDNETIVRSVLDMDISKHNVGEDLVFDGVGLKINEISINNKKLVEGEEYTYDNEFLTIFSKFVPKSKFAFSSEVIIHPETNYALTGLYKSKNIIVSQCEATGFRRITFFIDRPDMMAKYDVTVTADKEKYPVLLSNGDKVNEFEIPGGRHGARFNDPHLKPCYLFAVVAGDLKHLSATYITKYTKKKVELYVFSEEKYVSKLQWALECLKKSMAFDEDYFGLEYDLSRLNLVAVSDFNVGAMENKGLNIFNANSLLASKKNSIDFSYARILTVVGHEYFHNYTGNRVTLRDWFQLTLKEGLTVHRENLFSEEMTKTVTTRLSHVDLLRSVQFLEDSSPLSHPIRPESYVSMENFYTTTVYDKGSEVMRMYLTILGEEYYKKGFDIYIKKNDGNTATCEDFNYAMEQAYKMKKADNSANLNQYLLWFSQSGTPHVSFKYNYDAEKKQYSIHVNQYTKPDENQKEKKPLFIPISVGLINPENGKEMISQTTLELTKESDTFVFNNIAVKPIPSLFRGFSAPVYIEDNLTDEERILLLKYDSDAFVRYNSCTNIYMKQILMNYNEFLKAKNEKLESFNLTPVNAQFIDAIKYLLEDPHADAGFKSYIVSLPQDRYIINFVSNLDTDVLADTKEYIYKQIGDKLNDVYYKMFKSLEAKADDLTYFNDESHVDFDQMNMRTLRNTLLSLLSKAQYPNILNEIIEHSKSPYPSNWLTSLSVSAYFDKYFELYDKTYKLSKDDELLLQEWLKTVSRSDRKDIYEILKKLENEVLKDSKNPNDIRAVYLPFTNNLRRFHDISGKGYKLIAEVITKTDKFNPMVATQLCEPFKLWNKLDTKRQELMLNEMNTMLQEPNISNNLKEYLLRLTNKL

[7] = biological target: 26S proteasome non-ATPase regulatory subunit 14 (Homo sapiens, UniProt O00487); experiment: inhibition of proteasome subunit RPN11 – biochemical, fluorescence polarization, uHTS hits, confirmation (AID 602368); assay type: functional
Prothrombin = Prothrombin (Bos taurus, UniProt P00735); experiment: thrombin protease inhibitors – biochemical, fluorescence polarization, uHTS hits, dose response (AID 602369); assay type: functional
[8] = fluconazole-exposed Candida albicans growth modulators – fluorescence, retest, confirmation (AID 2467); assay type: functional, cell-based
[9] = biological target: 72 kDa type IV collagenase (Homo sapiens, UniProt P08253); experiment: Dose Response validation of uHTS RPN11 inhibitor hits using a MMP-2 Fluorescence assay.; assay type: functional
NS3 = NS3 (Hepatitis C virus, UniProt A3EZJ3); experiment: PubChem AID 2173; set-up: species or system Hepacivirus hominis
[10] = NIH-3T3 fibroblast cytotoxicity, dose response, cytotoxicity control, cell-based, fluorescence, Alamar Blue, secondary assay (AID 2327); assay type: functional;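 note: NIH-3T3 mouse fibroblasts cultured with fluconazole at 8 µg/mL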
[11] = biological target: T5, Heat shock factor protein 1 (Mus musculus, UniProt P38532); experiment: decrease of HSF1-responsive luciferase luminescence – cell-based, NIH3T3, dose retest, confirmation (AID 2382); assay type: functional;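 note: NIH3T3 fibroblasts with HSF1-driven luciferase reporter stressed by proteasome inhibitor MG132; luminescence from HSF1-driven luciferase expression after 8 hours of MG132 stress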
T5 sequence (P38532 whole entry): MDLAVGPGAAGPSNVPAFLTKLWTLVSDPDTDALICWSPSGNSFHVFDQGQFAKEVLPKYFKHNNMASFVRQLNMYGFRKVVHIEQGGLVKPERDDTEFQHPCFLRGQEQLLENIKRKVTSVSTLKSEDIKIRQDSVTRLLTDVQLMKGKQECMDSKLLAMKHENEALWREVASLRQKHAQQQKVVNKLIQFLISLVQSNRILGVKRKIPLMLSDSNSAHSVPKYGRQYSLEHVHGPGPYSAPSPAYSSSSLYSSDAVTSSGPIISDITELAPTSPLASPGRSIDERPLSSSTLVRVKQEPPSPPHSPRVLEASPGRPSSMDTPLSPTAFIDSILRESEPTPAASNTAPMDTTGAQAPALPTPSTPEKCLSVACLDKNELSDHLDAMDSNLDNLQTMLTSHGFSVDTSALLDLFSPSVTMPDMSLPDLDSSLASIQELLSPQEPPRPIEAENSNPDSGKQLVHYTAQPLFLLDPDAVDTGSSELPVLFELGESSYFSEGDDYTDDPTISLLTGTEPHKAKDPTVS

Estrogen receptor = biological target: T6, Estrogen receptor (Homo sapiens, UniProt P03372); experiment: ERα coactivator recruitment enhancers – biochemical, TR-FRET, ERα LBD, dose response (AID 737)
T6 sequence (P03372 whole entry): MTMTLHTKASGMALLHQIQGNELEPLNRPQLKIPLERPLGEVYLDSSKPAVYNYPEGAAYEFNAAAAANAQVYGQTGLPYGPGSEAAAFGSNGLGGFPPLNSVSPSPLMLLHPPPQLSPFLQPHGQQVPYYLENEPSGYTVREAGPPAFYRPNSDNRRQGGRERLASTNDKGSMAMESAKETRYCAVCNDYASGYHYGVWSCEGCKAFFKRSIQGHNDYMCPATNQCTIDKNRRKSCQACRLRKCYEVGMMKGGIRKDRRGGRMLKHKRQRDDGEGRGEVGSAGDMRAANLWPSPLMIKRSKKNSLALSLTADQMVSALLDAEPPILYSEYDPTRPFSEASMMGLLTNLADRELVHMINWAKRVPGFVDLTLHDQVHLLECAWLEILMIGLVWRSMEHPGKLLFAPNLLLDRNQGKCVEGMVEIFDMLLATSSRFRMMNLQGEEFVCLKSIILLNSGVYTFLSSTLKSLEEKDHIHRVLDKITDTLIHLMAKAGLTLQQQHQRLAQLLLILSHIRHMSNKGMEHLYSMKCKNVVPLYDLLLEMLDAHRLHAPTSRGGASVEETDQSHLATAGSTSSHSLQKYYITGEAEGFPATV

Mucolipin-3 = Mucolipin-3 (Homo sapiens, UniProt Q8TDD5); experiment: Dose response cell-based high-throughput screening assay for agonists of the transient receptor potential channel ML3 (TRPML3). [Related pubchem assays: 1526, 1424, 1448 ]; assay type: functional
Ion channel NompC = Ion channel NompC (Danio rerio, UniProt Q7T1G6); experiment: Fluorescence counterscreen assay for TRPML3 agonists: dose response cell-based high-throughput screening assay to identify agonists of the transient receptor potential channel N1 (TRPN1). [Related pubchem assays: 1526, 1424, 1448 ]; assay type: functional
Sequence of Ion channel NompC (Q7T1G6 whole entry): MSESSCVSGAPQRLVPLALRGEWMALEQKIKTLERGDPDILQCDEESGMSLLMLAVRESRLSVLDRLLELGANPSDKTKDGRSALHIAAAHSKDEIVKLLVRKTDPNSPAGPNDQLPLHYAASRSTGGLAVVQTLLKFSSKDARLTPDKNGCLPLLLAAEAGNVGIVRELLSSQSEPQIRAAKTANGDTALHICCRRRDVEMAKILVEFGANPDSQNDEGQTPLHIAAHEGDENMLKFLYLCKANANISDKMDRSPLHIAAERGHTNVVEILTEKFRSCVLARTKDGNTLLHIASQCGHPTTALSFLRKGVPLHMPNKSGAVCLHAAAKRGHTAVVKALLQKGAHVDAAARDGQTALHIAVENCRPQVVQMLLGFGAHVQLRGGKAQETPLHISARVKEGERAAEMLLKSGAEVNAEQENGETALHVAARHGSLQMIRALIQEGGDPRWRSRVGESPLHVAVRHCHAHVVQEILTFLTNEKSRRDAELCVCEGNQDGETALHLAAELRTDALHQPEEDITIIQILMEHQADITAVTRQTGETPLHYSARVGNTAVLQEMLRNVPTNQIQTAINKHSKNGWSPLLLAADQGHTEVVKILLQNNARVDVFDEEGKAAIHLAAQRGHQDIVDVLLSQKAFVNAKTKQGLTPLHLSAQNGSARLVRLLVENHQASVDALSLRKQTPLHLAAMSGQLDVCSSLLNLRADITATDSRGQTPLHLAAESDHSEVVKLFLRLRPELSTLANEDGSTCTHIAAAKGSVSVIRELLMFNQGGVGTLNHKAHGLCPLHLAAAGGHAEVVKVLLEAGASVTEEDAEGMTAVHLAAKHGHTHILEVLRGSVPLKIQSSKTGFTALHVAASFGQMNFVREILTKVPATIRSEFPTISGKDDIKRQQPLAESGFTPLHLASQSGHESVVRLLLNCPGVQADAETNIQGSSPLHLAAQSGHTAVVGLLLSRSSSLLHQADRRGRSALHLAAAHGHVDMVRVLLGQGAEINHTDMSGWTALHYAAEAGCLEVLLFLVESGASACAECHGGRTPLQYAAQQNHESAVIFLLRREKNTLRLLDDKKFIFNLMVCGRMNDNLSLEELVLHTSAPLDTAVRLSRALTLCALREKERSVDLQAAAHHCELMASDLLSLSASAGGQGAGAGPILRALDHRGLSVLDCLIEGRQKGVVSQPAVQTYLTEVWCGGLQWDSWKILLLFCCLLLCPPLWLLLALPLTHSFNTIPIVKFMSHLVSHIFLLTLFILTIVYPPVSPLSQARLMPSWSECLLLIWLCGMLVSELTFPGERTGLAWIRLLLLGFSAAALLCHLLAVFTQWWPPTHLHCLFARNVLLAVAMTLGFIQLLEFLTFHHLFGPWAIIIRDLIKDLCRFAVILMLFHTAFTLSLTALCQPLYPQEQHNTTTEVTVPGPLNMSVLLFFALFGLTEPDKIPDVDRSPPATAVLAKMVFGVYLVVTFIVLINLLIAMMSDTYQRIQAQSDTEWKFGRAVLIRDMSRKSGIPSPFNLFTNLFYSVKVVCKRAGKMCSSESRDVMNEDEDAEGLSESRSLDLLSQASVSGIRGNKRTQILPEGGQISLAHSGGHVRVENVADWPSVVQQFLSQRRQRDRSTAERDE

Sequence of Aspartyl aminopeptidase (Q8I2J3 whole entry): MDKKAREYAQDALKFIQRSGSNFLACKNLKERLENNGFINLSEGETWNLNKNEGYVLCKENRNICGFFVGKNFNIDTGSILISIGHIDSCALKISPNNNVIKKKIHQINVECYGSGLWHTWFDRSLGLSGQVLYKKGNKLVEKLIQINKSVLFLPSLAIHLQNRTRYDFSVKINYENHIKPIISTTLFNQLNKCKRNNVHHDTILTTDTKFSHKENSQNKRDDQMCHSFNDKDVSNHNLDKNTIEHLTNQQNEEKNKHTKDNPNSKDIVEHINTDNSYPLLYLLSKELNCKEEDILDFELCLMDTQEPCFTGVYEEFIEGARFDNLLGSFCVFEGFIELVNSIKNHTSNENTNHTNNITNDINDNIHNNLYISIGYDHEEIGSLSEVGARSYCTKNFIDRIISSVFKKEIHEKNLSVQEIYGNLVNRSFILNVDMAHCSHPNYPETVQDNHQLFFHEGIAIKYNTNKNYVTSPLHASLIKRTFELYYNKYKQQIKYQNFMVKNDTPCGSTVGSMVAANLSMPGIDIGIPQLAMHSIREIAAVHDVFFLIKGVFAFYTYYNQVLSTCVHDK
Sequence of 72 kDa type IV collagenase (P08253 whole entry): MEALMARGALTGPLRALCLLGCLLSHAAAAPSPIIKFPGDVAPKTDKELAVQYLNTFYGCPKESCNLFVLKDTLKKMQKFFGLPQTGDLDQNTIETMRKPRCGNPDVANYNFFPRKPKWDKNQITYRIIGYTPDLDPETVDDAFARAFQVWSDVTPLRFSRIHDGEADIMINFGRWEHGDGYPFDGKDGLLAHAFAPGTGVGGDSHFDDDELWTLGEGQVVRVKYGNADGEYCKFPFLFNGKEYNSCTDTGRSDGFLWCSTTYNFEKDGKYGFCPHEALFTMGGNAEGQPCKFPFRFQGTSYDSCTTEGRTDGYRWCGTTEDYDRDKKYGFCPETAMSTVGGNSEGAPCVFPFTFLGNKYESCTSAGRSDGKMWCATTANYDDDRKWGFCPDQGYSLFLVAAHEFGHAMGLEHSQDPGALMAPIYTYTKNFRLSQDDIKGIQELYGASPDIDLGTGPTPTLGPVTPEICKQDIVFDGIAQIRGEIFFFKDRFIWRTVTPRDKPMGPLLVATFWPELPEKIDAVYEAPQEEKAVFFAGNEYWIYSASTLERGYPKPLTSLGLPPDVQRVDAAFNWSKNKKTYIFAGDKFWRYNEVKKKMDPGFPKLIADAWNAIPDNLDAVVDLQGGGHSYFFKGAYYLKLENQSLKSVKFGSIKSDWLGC
Sequence of 26S proteasome non-ATPase regulatory subunit 14 (O00487 whole entry): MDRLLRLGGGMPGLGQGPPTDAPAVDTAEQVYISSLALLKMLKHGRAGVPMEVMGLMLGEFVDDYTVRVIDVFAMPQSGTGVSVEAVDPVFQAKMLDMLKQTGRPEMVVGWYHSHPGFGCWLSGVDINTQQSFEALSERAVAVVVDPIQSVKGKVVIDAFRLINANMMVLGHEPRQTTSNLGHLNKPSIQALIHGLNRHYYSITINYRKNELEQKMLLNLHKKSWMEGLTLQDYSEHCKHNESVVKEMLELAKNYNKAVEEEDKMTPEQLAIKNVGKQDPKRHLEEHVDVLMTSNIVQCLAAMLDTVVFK
Sequence of Mucolipin-3 (Q8TDD5 whole entry): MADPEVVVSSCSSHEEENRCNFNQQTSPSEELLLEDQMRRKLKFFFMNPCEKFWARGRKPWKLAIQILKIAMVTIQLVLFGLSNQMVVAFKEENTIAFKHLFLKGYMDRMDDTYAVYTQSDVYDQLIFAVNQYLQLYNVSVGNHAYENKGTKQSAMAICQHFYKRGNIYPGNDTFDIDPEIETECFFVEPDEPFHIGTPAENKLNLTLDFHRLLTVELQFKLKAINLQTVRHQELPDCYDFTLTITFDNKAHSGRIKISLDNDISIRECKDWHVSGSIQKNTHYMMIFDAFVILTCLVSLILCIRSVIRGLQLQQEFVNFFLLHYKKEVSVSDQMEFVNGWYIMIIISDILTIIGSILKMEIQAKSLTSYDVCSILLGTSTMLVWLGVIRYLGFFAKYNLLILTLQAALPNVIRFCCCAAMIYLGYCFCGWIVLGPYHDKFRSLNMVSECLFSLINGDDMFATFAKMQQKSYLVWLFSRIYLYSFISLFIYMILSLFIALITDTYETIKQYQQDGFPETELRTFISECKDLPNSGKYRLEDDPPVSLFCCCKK
Sequence of NS3 (A3EZJ3 whole entry): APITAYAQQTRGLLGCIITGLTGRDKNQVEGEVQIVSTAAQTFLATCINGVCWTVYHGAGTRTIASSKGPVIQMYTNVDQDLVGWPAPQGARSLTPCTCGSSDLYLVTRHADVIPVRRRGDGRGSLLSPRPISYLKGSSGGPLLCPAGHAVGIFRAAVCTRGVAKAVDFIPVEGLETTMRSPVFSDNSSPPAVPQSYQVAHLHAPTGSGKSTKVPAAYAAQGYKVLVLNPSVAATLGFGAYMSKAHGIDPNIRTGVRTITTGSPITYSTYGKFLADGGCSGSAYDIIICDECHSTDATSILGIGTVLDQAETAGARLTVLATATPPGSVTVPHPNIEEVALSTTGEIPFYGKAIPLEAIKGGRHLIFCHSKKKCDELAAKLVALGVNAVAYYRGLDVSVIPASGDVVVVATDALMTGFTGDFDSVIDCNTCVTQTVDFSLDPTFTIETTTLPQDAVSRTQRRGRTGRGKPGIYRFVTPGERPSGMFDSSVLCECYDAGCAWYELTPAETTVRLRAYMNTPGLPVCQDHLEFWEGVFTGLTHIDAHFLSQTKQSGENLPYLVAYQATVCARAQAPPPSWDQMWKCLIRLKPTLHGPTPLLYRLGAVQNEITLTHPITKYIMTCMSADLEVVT
Sequence of Procathepsin L (P07711 whole entry): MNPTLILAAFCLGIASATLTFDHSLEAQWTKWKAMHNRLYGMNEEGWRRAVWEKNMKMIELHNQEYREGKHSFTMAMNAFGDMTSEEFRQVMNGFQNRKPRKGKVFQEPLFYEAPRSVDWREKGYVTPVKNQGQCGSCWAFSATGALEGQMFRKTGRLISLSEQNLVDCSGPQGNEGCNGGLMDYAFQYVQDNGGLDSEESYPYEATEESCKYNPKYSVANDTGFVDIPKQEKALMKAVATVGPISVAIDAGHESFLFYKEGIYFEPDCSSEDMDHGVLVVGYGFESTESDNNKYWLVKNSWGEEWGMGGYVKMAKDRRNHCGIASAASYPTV

N#C/C(=C\c1ccc(N2CCOCC2)o1)C(=O)NCC1CCCO1 (stereo not given)
EC50 [1]: > 100 µM (active)
IC50 (Insulin-degrading enzyme): 25.3 µM (not active)
EC50 [2]: > 67.5 µM (inactive)
IC50 [3]: > 67.5 µM (inactive)
IC50 [4]: > 55.7 µM (not active)

O=C(O)c1c[nH]nc1-n1cnnn1
IC50 (Procathepsin L): > 59.6 µM (not active)
IC50 (Aspartyl aminopeptidase): 1.27 µM (active)

Cc1ccc(C(=O)NN=C(S)Nc2cccc3ccccc23)s1
EC50 [5]: 62.6 µM (not active)

Cc1ccc(C(=O)Nc2scc(-c3ccccc3)c2C(=O)O)o1
IC50 [6]: 34 µM (active)
IC50 (Aminopeptidase N): 68.4 µM (active)

O=C1NC(=S)N(CCC2=CCCCC2)C(=O)/C1=C/NNC(=O)c1ccccc1
IC50 [7]: 43.9 µM (active)
IC50 (Prothrombin): 62.2 µM (active)
EC50 [8]: > 38 µM (not active)
IC50 [9]: > 100 µM (inactive)
IC50 (NS3): 5.41 µM (active)
EC50 [10]: > 150 µM (inconclusive)

COc1nnc(-c2ccc(C(=O)N3C[C@@H]4C[C@H](C3)c3cccc(=O)n3C4)cc2)c2ccccc12
EC50 [11]: > 195 µM (not active)
EC50 (Estrogen receptor): 15 µM (active)

CCOC(=O)C(C)(C)N(Cc1cccc(C)c1)S(=O)(=O)c1cccc([N+](=O)[O-])c1
EC50 (Mucolipin-3): > 29.9 µM (not active)
EC50 (Ion channel NompC): > 29.9 µM (not active)
